Measurements published in US20260209777A1, “TARGETING GLYCOSYLPHOSPHATIDYLINOSITOL (GPI) PATHWAY PROTEINS TO TREAT OVARIAN CANCER” (UNIVERSITY OF MASSACHUSETTS, priority 2023, published 2026).

Tests used:
[1] = target: T1, GPAA1 (Homo sapiens, UniProt O43292); assay: Cellular thermal stability shift assay (CETSA); assay type: binding; conditions: OVCAR8 cells, bestatin 100 μM for 2 hours, relative to DMSO (FIG. 6B)
T1 construct: endogenous in cells; host or cells: OVCAR8 human ovarian cancer cells (Creative Biolabs, Cat #IOC-ZP305)
T1 sequence (O43292 1-621): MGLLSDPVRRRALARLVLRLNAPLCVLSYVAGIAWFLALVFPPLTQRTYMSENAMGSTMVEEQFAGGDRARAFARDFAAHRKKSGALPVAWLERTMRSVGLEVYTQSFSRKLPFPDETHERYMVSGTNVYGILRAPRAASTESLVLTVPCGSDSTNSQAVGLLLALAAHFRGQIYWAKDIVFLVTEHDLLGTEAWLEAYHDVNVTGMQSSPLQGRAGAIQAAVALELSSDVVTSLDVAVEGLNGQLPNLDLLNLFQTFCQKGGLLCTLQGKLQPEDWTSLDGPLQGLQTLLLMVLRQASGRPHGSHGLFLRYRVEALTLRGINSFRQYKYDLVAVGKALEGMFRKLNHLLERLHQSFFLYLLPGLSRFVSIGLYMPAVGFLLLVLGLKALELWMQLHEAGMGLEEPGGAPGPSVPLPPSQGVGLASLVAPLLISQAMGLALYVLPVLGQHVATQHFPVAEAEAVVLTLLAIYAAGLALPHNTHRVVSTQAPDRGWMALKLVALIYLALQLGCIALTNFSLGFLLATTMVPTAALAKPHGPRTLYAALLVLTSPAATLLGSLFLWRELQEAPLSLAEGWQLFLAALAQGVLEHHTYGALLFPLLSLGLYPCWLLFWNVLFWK
Experimental: CETSA: CETSA assays were performed as described previously (Jafari et al., Nat Protoc 2014, 9(9):2100-22). In brief, […] OVCAR8 cells were treated with DMSO or 100 μM bestatin for 2 hours. Cells (50 μl) were aliquoted in PCR tubes and incubated at room temperature (25° C.) or at a range of temperatures (37° C. to 65.2° C.) in a thermal cycler for 3 min and cooled to 4° C. Cells were lysed using Alpha SureFire Ultra Lysis Buffer (PerkinElmer, Cat #ASLU-LB) supplemented with Halt Protease Inhibitor Cocktail (ThermoFisher Scientific, Cat #78430). Insoluble proteins were separated by centrifugation at 15000×g for 30 mins at 4° C. Equal volumes of each sample were separated by SDS-PAGE and detected by immunoblotting blotting using an anti-GPAA1 polyclonal antibody (Invitrogen, Cat #PA5-100548). Three independent experiments were performed. Densitometry of the blots was performed using ImageJ software and the graph was plotted using GraphPad Prism 9.0.
Due to the predicted structural similarity between GPAA1 and M28-type metallopeptidases, we hypothesized that GPAA1 may be inhibited by bestatin and carried out a series of experiments to test this possibility. […] The ligand-bound proteins in the soluble fraction are analyzed by immunoblotting to quantify the changes in thermal stability.

[2] = system: SKOV3 cells; assay: Cell viability assay (PrestoBlue) in SKOV3 cells; assay type: cell-based, human; conditions: SKOV3, 5, 10 or 20 μM bestatin vs DMSO (FIG. 6F)
[3] = system: OVCAR8 cells; assay: Cell viability assay (PrestoBlue) in OVCAR8 cells; assay type: cell-based, human; conditions: OVCAR8, 5, 10 or 20 μM bestatin vs DMSO (FIG. 6F)
Experimental: Cell Viability Assay: OVCAR8 cells were transduced with a lentivirus expressing non-silencing (NS) or CD24 shRNA (Table 1) and analyzed for cell viability using PrestoBlue Cell Viability Reagent (Invitrogen™, Cat #A13261) as per the manufacturer's instructions, and relative cell growth was determined. […]

[4] = system: CD24 cell surface expression in SKOV3 cells; assay: CD24 flow cytometry analysis in SKOV3 cells; assay type: cell-based, human; conditions: 3 days, bestatin 10 or 20 μM, tosedostat 5 or 10 μM, vs DMSO
Experimental: Flow Cytometry Analysis: For cell surface protein staining, 1×10^5-1×10^6 cells were first incubated with Fc receptor blocking solution, Human TruStain FcXTM (BioLegend, Cat #422301) for 10 minutes at room temperature. Cells were washed once in FACS buffer (1×PBS, 1.0% bovine serum albumin (BSA) (Sigma) and 0.2% sodium azide (Sigma), and then incubated with antibodies (given below) for 30 minutes at 4° C. in the dark. Cells were also stained with 7-AAD (Biolegend, Cat #420404) for dead cell exclusion, and flow cytometry analysis was performed using a Bio-Rad ZE5 Cell Analyzer. Following antibodies used in this study (all antibodies were used at 1:50 dilution unless otherwise noted): APC anti-human CD24 (BioLegend, Cat #311118, clone ML5), PE anti-human CD24 (eBioscience, Cat #12-0247-42, clone SN3), APC anti-human CD47 (BioLegend, Cat #323124, clone CC2C6), APC anti-human § 2-microglobulin (BioLegend, Cat #395711, clone […]), PE anti-human HLA-A2 (MHC-class I) (BioLegend, Cat #343305, clone BB7.2), APC anti-human CD11b (BioLegend, Cat #982604, clone ICRF44), APC anti-mouse F4/80 antibody (BioLegend, Cat #123116, clone BM8), APC-streptavidin (Thermo Fisher Scientific, Cat #SA1005, 1:100 dilution), PE anti-Calreticulin (Invitrogen, Catalog #MA5-15382, 1:200 dilution). […]

Row | thermal stability of GPAA1 [1] | SMILES | cell viability [2] | cell viability [3] | CD24 cell surface expression (MFI) [4]
1 | increased | CC(C)C[C@H](NC(=O)[C@@H](O)[C@H](N)Cc1ccccc1)C(=O)O [bestatin] | no effect | no effect | 
2 |  | CC(C)C[C@@H](C(=O)N[C@H](C(=O)OC1CCCC1)c1ccccc1)[C@H](O)C(=O)NO [tosedostat] |  |  | reduced
